Legend:
Test in all cases: Antimicrobial Susceptibility Test (CLSI), Test Example 2
Format in all cases: cell-based
Set-up in all cases: unit not given here
A. baumannii FSAb-056 = conditions: Table 4; strain produces OXA-23, OXA-51
Procedure: (§1) Antimicrobial Susceptibility Test was performed by the CLSI (Clinical and Laboratory Standards Institute) methods. The agar dilution method for determining antimicrobial susceptibility was carried out using Mueller Hinton-II agar and the amount of inoculation was 10^4CFU/spot. Broth dilution tests were performed using the Mueller Hinton-II broth. All assays were run with the indicated control strains, available from the ATCC (American Type Culture Collection, Rockville, Md.).

A. baumannii FSAb-065 = conditions: Table 4; strain produces OXA-2, VIM-2
Procedure: as §1

A. baumannii FSAb-039 = conditions: Table 4; strain produces OXA-51
Procedure: as §1

P. aeruginosa FSPa-121 = conditions: Table 4; strain produces OXA-17
Procedure: as §1

E. coli FSEco-054 = conditions: Table 4; strain produces ESBL
Procedure: as §1

A. baumannii FSAb-029 = conditions: Table 4; strain produces OXA-2, IMP-1
Procedure: as §1

[1] = test system: K. pneumoniae ATCC BAA-1904; conditions: Table 4; strain produces KPC-3
Procedure: as §1

| Structure (SMILES) | antimicrobial susceptibility, A. baumannii FSAb-056 (A. baumannii FSAb-056) | antimicrobial susceptibility, A. baumannii FSAb-065 (A. baumannii FSAb-065) | antimicrobial susceptibility, A. baumannii FSAb-039 (A. baumannii FSAb-039) | antimicrobial susceptibility, P. aeruginosa FSPa-121 (P. aeruginosa FSPa-121) | antimicrobial susceptibility, E. coil FSEco-054 (E. coli FSEco-054) | antimicrobial susceptibility, A. baumannii FSAb-029 (A. baumannii FSAb-029) | antimicrobial susceptibility, K. pneumoniae BAA-1904 [1] |
| --- | --- | --- | --- | --- | --- | --- | --- |
| C[C@@H](O)[C@H]1C(=O)N2C(C(=O)O)=C(CN3CC[C@@H](NC(=O)c4ccc(O)c(O)c4Cl)C3)[C@H](C)[C@H]12 [Compound 29] | 4 | 1 | 8 | 2 | 2 | 1 | >32 |
| C[C@@H](O)[C@H]1C(=O)N2C(C(=O)O)=C(CN3C[C@H](NC(=O)c4ccc(O)c(O)c4Cl)[C@@H](O)C3)[C@H](C)[C@H]12 [Compound 30] | 4 | 0.5 | 4 | 2 | 2 | 2 | 16 |
| C[C@@H](O)[C@H]1C(=O)N2C(C(=O)O)=C(CN3C[C@@H](O)[C@H](NC(=O)c4ccc(O)c(O)c4Cl)C3)[C@H](C)[C@H]12 [Compound 31] | 4 | 0.5 | 4 | 2 | 2 | 2 | 32 |
| C[C@@H](O)[C@H]1C(=O)N2C(C(=O)O)=C(CN3C[C@@H](NC(=O)c4ccc(O)c(O)c4Cl)C[C@H]3C(N)=O)[C@H](C)[C@H]12 [Compound 32] | 16 | 1 | >32 | 1 | 4 | 2 | >32 |
| C[C@@H](O)[C@H]1C(=O)N2C(C(=O)O)=C(CN3C[C@@H](NC(=O)c4ccc(O)c(O)c4Cl)C[C@@H]3C(N)=O)[C@H](C)[C@H]12 [Compound 33] | 8 | 1 | 32 | 2 | 4 | 4 | >32 |
| C[C@@H](O)[C@H]1C(=O)N2C(C(=O)O)=C(CN3CCCC3CNC(=O)c3ccc(O)c(O)c3Cl)[C@H](C)[C@H]12 (stereo partly shown) [Compound 34] | 8 | 8 | 8 | 8 | 2 | 2 | >32 |
| C[C@@H](O)[C@H]1C(=O)N2C(C(=O)O)=C(CN3CCCC3CNC(=O)c3ccc(O)c(O)c3Cl)[C@H](C)[C@H]12 (stereo partly shown) [Compound 35] | 4 | 2 | 8 | 4 | 2 | 4 | >32 |

From patent publication US10933051B2, “Carbapenem compounds and compositions for the treatment of bacterial infections” (FOB Synthesis, Inc., priority 2017, dated 2021)
